In BigSolDB 2.1:

O=[N+]([O-])c1cccc2cccc([N+](=O)[O-])c12
solubility (mole fraction)
Settings	in acetone	in acetonitrile	in chloroform	in ethanol	in ethyl acetate
273.15 K	0.0103	0.00295	0.00311	0.000242	0.00414
275.65 K	0.0113	0.00331	0.0035	0.000267	0.00446
278.15 K	0.0119	0.0039	0.00382	0.000294	0.00471
280.65 K	0.013	0.00465	0.0042	0.000323	0.00522
283.15 K	0.014	0.00528	0.00473	0.000351	0.00551
285.65 K	0.0152	0.00597	0.00508	0.000385	0.00607
288.15 K	0.0163	0.00661	0.00561	0.000427	0.00659
291.15 K	0.0177	0.00761	0.00601	0.000484	–
293.15 K	0.0189	0.00821	–	0.000529	–
295.65 K	0.0205	0.00921	0.00732	0.000584	–
298.15 K	0.0223	0.0102	0.00787	0.000646	–
300.65 K	0.0243	0.0112	0.0084	0.00071	–
303.15 K	0.0261	0.012	0.00923	0.000789	–
305.65 K	0.028	0.013	0.00983	0.000878	–
308.15 K	0.0306	0.014	0.0107	0.000994	–
